Assay results: patent publication US20220241236A1, “DIETARY BUTYRATE AND ITS USES” (SOCIETE DES PRODUITS NESTLE S.A., priority 2019, published 2022)
Entries after “also recorded” stand apart in the source; their conditions may differ.

Experiments:
[1] = tested on: rabbit gastric lipase (RGL) followed by porcine pancreatic lipase (PPL); test: Sequential in vitro digestion SGF (RGL) followed by SIF (PPL), pH-stat; format: in vitro ADME
[2] = target: T1, porcine pancreatic lipase (from pancreatin) (Sus scrofa, UniProt P00591); test: In vitro lipolysis in simulated intestinal fluid (SIF model), pH-stat; format: in vitro ADME; settings: SIF alone; emulsion with 200 mg fat; pH 6.8, 37° C.
T1 construct: pancreatin (Porcine, USP×8, P7585); purchased Sigma-Aldrich P7585; host or cells: porcine pancreas extract (pancreatin)
T1 sequence (P00591 1-450): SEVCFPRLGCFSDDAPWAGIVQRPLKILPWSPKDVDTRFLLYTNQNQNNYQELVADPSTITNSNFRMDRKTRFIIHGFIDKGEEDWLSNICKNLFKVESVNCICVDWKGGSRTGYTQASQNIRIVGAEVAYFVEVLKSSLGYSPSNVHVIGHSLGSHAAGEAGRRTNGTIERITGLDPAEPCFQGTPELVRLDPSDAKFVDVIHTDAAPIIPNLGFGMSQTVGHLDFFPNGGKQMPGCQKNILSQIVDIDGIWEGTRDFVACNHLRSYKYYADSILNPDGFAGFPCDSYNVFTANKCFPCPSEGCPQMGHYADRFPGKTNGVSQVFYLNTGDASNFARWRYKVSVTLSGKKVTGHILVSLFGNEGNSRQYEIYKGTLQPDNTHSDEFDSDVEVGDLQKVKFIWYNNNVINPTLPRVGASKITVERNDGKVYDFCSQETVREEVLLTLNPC
T1 sequence (P02703 23-112 partner): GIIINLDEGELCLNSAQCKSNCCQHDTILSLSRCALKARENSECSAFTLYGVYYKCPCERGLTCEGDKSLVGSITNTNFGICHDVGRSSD

initial lipolysis rate in SIF ([1]; SGF-SIF sequential digestion (after pre-exposure to RGL)): 44.1 ± 8.8 µmol/min
lipolysis by gastric lipase ([1]; indicated by decreased total fatty acid release in SIF after RGL pre-exposure): ~60%
initial rate of lipolysis [2]: 223 ± 59 µmol/min
SMILES: CCCC(=O)OCC(COC(=O)CCC)OC(=O)CCC [tributyrin]
extent of gastric lipolysis / hydrolysis in the stomach ([1]; gastric compartment of the model): considerable digestion; also recorded: extensive hydrolysis in the stomach
